Experimental findings from patent EP0830136B1, “NEW CRY[…] […]” (priority 1995, dated 1996) are described below.

The subject of data set [1] is KB. The data set can be described thus: In vitro cytotoxicity, KB cell line. The data set is classed as cell-based, human. The conditions noted are these: read-out: RB IC50.
In data set [2] the test system is LoVo. Nature of the data set: In vitro cytotoxicity, LoVo cell line. The data set is classed as cell-based, human.
In data set [3] the test system is Panc 03.
The subject of data set [4] is tumors implanted in mice. The conditions noted are these: for in vivo antitumor activity: statement in words.
For data set [5], the system named is human tumor cell lines KB and LoVo. The data set can be described thus: In vitro cytotoxicity, KB and LoVo. The following applies: read-out: cytotoxicities IC50's.
Data set [6] has as its system Colon 38. The conditions noted are these: Exp # 1887 B; SC Tumor C38; 6 Inj. IV; 30 mg/kg TD.
Data set [7] relates to Colon 51. The following applies: Exp # 1900; SC Tumor Colon 51; 9 Inj. IV; 67.5 mg/kg TD.
In data set [8] the test system is Mam 16/C. The conditions noted are these: Exp # 1885; SC Tumor Mam 16/C; 7 Inj. IV; 21.3 mg/kg TD.
Data set [9] is described as follows: Methanolysis (solvolysis) of the C-D ester bond. In kind it is physicochemical. The conditions noted are these: methanol used in the isolation scheme.
Data set [10] can be described thus: physchem. The conditions noted are these: aqueous base, pH 11.
Data set [11] relates to A-10 rat aortic smooth muscle cells. Nature of the data set: Immunofluorescence of cytoskeleton in A-10 cells. In kind it is cell-based. The conditions noted are these: A-10 cells, 24 hours; 2µM cytochalasin B, 100nM vinblastine or 10nM cryptophycin compounds. As to the method: A-10 cells were grown to near-confluency on glass coverslips in BME/10% FBS. Compounds in PBS were added to the indicated final concentrations and cells were incubated for an additional 24 hours. For the staining of microtubules and intermediate filaments, the cells were fixed with cold methanol and incubated with PBS containing 10% calf serum to block nonspecific binding sites. Cells were then incubated at 37°C for 60 min with either monoclonal anti-β-tubulin or with monoclonal anti-vimentin at dilutions recommended by the manufacturer. Bound primary antibodies were subsequently visualized by a 45-minute incubation with fluorescein-conjugated rabbit antimouse IgG. The coverslips were mounted on microscope slides and the fluorescence patterns were examined and photographed using a Zeiss Photomicroscope ill equipped with epifluorescence optics for fluorescein. […] PBS containing 100nM TRITC-phalloidin was then added and the mixture was allowed to incubate for 45 min at 37° C. The cells were washed rapidly three times with PBS before the coverslips were mounted and immediately photographed as described above.

Where [12] appears, read: Exp # 1843, SC Tumor P03, 4 Inj. IV, 28/5 mg/kg TD.
Where [13] appears, read: Exp # 1825, SC Tumor P03, 11 Inj. IV, 106 mg/kg TD.
Where [14] appears, read: summary over trials, partly worded 'mostly'.
The mark [15] stands for this setting: Exp # 1878, SC Tumor P03, 9 Inj. IV, 82 mg/kg TD.
The mark [16] stands for this setting: Exp # 1813, SC Tumor P03, 9 Inj. IV, 27 mg/kg TD.
[17] abbreviates: Exp # 1843, SC Tumor P03, 7 Inj. IV, 23 mg/kg TD.

pIC50: −log10 of the molar value. “Also recorded” adds a separate entry of the source. Read-outs that look alike come from different tables or passages of the source.

A word on the pIC50: it is −log10 of the IC50, conventionally taken in molar units. A word on the T/C: it is the result in the treated group divided by that in the control group, in per cent. Consider `COc1ccc(C[C@H]2NC(=O)/C=C/C[C@@H]([C@H](C)/C=C/c3ccccc3)OC(=O)[C@H](CC(C)C)OC(=O)[C@H](C)CNC2=O)cc1Cl` [Cryptophycin 3], for which, in data set [1], the pIC50 is 8.34 to 8.51. The pIC50 in data set [2] is 8.24 to 8.72. In data set [3] (setting [12]), the “% Body Wt. Loss at Nadir” value is listed as -9%, the Cures was 0/5, the “Log Kill” value is given as <1 and the T/C is 54%. The “in vivo antitumor activity” value in data set [4] is “antitumor activity is greatly diminished”. Further, the pIC50 in [5] was 8.24 to 8.46.
Take `COc1ccc(C[C@H]2NC(=O)/C=C/C[C@@H]([C@H](C)[C@@H](O)[C@@H](Cl)c3ccccc3)OC(=O)[C@H](CC(C)C)OC(=O)[C@H](C)CNC2=O)cc1Cl` [Cryptophycin 8]: the values for the pIC50 in data set [1], in [2] and in [5] were 10.72, 11.04 and 10.72 to 11.05, respectively. In addition, the “% Body Wt. Loss at Nadir” value in data set [6] is given as -2%; in data set [3] (setting [13]), -6%; in data set [7] it was -1%; in data set [8], -4.5%. Further, the Cures in data set [6] was 1/5; in data set [3] (setting [13]), 0/5; in [7], 0/5; in data set [8], 0/5. Also, the “Log Kill” value in [6] was found to be 2.8; in [3] (mouse, in vivo, 106 mg/kg) it was 4.6; in [7] it was 1.8; in [8], 2.5. In addition, the T/C in data set [6] worked out at 0%; in data set [3] (setting [13]), 4%; in data set [7] it was 7%; in data set [8], 6%. The T/C values in data set [4] (setting [14]) was determined as 0%. Also, the “gross log kill values” in [4] (setting [14]) is on record as > 2.8.
As for `COc1ccc(C[C@H]2NC(=O)/C=C/C[C@@H]([C@H](C)[C@@H](O)[C@@H](O)c3ccccc3)OC(=O)[C@H](CC(C)C)OC(=O)[C@H](C)CNC2=O)cc1Cl` [Cryptophycin 15], the “in vivo antitumor activity” value in data set [4] is “antitumor activity is greatly diminished”.
For the molecule `CC(C)C[C@@H]1OC(=O)[C@H](C)CNC(=O)[C@@H](Cc2ccc(O)c(Cl)c2)NC(=O)/C=C/C[C@@H]([C@H](C)[C@H]2O[C@@H]2c2ccccc2)OC1=O` [Cryptophycin 16], in [3] (setting [15]), the “% Body Wt. Loss at Nadir” value is given as -1%, the Cures was 0/5, the “Log Kill” value was “None” and the T/C was determined as 89%.
For orientation: half-life means how long it takes for the measured level to halve. For `COc1ccc(C[C@H]2NC(=O)/C=C/C[C@@H]([C@H](C)[C@H]3O[C@@H]3c3ccccc3)OC(=O)[C@H](CC(C)C)OC(=O)CCNC2=O)cc1Cl` [Cryptophycin 21], the “methanolysis of the C-D ester bond” value in [9] is on record as “considerable methanolysis; also recorded: much more susceptible to methanolysis than Cryptophycin 1”. In data set [3] (setting [16]), the “% Body Wt. Loss at Nadir” value was -11%, the Cures is on record as 0/5, the “Log Kill” value is “None” and the T/C is on record as 61%. The dead in data set [3] (setting [16]) is 1/5. The “in vivo antitumor activity” value in data set [4] is “inactive”. In data set [10], this molecule gave a half-life of 15 min.
Regarding `COc1ccc(C[C@H]2NC(=O)/C=C/C[C@@H]([C@H](C)[C@@H](O)[C@@H](Br)c3ccccc3)OC(=O)[C@H](CC(C)C)OC(=O)[C@H](C)CNC2=O)cc1Cl` [Cryptophycin 25], the “T/C and gross log kill values, comparison in words” value in data set [4] (mouse, in vivo) is “comparable with those for Cryptophycin 1”.
For the molecule `COc1ccc(CC2NC(=O)CCCC(C(C)C3OC3c3ccccc3)OC(=O)C(CC(C)C)OC(=O)C(C)CNC2=O)cc1Cl` (stereo not drawn) [Cryptophycin 35], in data set [3] (setting [17]), the “% Body Wt. Loss at Nadir” value is reported as -2%, the Cures is 0/5, the “Log Kill” value is on record as 1.3 and the T/C is recorded as 11%.
For `COc1ccc(C[C@H]2NC(=O)/C=C/C[C@@H]([C@H](C)/C=C/c3ccccc3)OC(=O)[C@H](CC(C)C)OC(=O)C(C)(C)CNC2=O)cc1Cl` [Cryptophycin 51], the pIC50 in data set [5] was 8.24 to 8.46.
Turning to `C=C1[C@@H](C)[C@H]2[C@H](Cc3ccccc3)NC(=O)[C@]23OC(=O)/C=C/[C@H](O)CCC[C@@H](C)C/C=C/[C@H]3[C@@H]1O` [Cytochalasin B, cytochalasin B], in data set [11], the effect on microfilaments entry was “complete depolymerization of microfilaments”, the effect on microtubules result was “did not affect the distribution of either mierotubules or intermediate filaments” and the “effect on vimentin intermediate filaments” value is listed as “did not affect the distribution of either mierotubules or intermediate filaments”.
